Source: US9856298B2 (priority 2011, dated 2018)
≈ marks a conversion by molar mass, not a printed value. Where two headings read alike, the source gives them in different places. Square brackets hold non-standard residues; d marks the D form. Primed or numbered codes have the meaning given here. Peptide text beside a SMILES is read from it. * marks the point of attachment. Orn(α-tetramethylguanidino) = CN(C)C(=N[C@@H](CCCN)C(=O)*)N(C)C; Guan″ = guanidino group at the N-terminus, N=C(N)*; tPEG5000 = PEG of 5000 linked via thiol group; sPEG750 = PEG of 750 linked via acid group; Guan = N-guanidino (N-terminal), N=C(N)*; Hyp = O=C(O)[C@@H]1C[C@@H](O)CN1; Tle = CC(C)(C)[C@H](N)C(=O)O; Orn = NCCC[C@H](N)C(=O)O

Assays:
[1] = tested on: Escherichia coli strain BL21AI; test: Minimum inhibitory concentration in 1% TSB; type: cell-based; details: E. coli BL21AI, 1% TSB, 20 hours at 37° C.
Procedure: (§1) To that end, the peptides were dissolved in water and diluted in a two-fold dilution series with 1% aqueous soybean medium (TSB) in sterile 96-well plates (Greiner Bio-One GmbH) from 128 μg/ml in twelve dilution steps to 62.5 ng/ml. Overnight cultures of Escherichia coli strain BL21AI were adjusted with 1% TSB to about […] colony forming units per ml. In each case 50 μl of peptide solution per well were then mixed with in each case 50 μl of the bacteria solution, in order to achieve a starting concentration of 4×10^5 bacteria per well. After incubation for 20 hours at 37° C., the absorption at 595 nm was determined (microplate reader, TECAN Trading AG).

[2] = mouse; for uncleaved peptide remaining after the indicated time (instead of half-life): serum, 15 µg/ml
Procedure: 30 μl of a 1 mg/ml peptide solution were diluted with 120 μl of water and, after addition of 50 of serum, incubated at 37° C. for 0 hours, 0.5 hour, 1 hour, 2 hours or 4 hours. Alternatively, the peptide derivatives having a starting concentration of 3 mg/ml were diluted with serum to a final concentration of 15 μg/ml. According to the stability of the peptides, the samples were analysed at the times mentioned above or after 0 hours, 4 hours and 6 hours. The serum proteins were precipitated by addition of 50 μl of 15% TCA, and the supernatant was neutralised with 25 μl of 1 mol/l NaOH. The samples were made up to 250 μl with 5% B, 230 μl of the solution were transferred into a HPLC vial, and 220 μl were injected.
RP-HPLC analysis was carried out with a linear acetonitrile gradient (Biosolve BV, Valkenswaard, Netherlands) in the presence of 0.1% trifluoroacetic acid (TFA, UV grade, Fluka Chemie GmbH, Buchs, Switzerland) as ion-pair reagent. The fractions were co-crystallised with α-cyanohydroxycinnamic acid (Bruker Daltonik GmbH; Bremen, Germany) as matrix (4 mg/ml in 60% acetonitrile in 0.1% aqueous TFA) and analysed with a tandem mass spectrometer (MALDI-TOF/TOF-MS, 4700 Proteomics Analyzer; Applied Biosystems GmbH, Weiterstadt, Germany) in positive-ion reflector mode. The amount of intact peptides and their degradation products or metabolites could thus be identified and quantified at the individual times. 25% aqueous mouse serum, which was analysed in parallel for the same time intervals, was used as control.

[3] = tested on: Escherichia coli strain BL21AI; test: Minimum inhibitory concentration in TSB in the presence of 25% mouse serum; type: cell-based; details: E. coli BL21AI, TSB with 25% mouse serum, 20 hours at 37° C.
Procedure: as §1
In addition, the antibacterial activity was also determined in the presence of 25% mouse serum. To that end, the MIC values were determined as described above, but 25 μl of mouse serum were also added to each well before the incubation (25% final concentration).

mouse serum (100%) = details: 37° C., up to 6 hours

| Molecule | MIC in TSB [1] | uncleaved peptide remaining after the indicated time (instead of half-life) ([2]; 6 h) | MIC in TSB/mouse serum [3] | Half-life (t1/2) in serum [2] | uncleaved peptide remaining after the indicated time (instead of half-life) ([2]; 5 h) | cleaved bond (mouse serum (100%)) |
| --- | --- | --- | --- | --- | --- | --- |
| Guan-ONO(tPEG^5000-GARSG)RPVYIPRPRPPHPRL-OH ({Guan″}-[Orn]N[Orn]RPVYIPRPRPPHPRL-OH; not fully specified (residue 3)) [Api 301 (tPEG^5000-GARSG)] | 9.2 µM | 62% | – | – | – | – |
| CC[C@H](C)[C@H](NC(=O)[C@H](Cc1ccc(O)cc1)NC(=O)[C@@H](NC(=O)[C@@H]1CCCN1C(=O)[C@H](CCCNC(=N)N)NC(=O)[C@H](CC(N)=O)NC(=O)[C@H](CC(N)=O)NC(=O)[C@H](CCCN)N=C(N(C)C)N(C)C)C(C)C)C(=O)N1CCC[C@H]1C(=O)N[C@@H](CCCNC(=N)N)C(=O)N1CCC[C@H]1C(=O)N[C@@H](CCCNC(=N)N)C(=O)N1CCC[C@H]1C(=O)N1CCC[C@H]1C(=O)N[C@@H](Cc1c[nH]cn1)C(=O)N1CCC[C@H]1C(=O)N[C@@H](CCCN)C(=O)N[C@@H](CC(C)C)C(N)=O [Api 134, Guan-ONNRPVYIPRPRPPHPOL-NH2, reference compound] ({Orn(α-tetramethylguanidino)}-NNRPVYIPRPRPPHP[Orn]L-NH2) | 1.78 µM (≈ 4 µg/mL) | – | 7.12 µM | – | – | – |
| Guan-ONO(sPEG^750-GRSG)RPVYIPRPRPPHPRL-OH ({Guan″}-[Orn]N[Orn]RPVYIPRPRPPHPRL-OH; not fully specified (residue 3)) [Api 301 (sPEG^750-GRSG)] | 1.5 µM | – | – | 30 min | – | – |
| Guan-ONO(tPEG^750-GRSG)RPVYIPRPRPPHPRL-OH (Guan-[Orn]N[Orn]RPVYIPRPRPPHPRL-OH; not fully specified (residue 3)) [Api 301 (tPEG^750-GRSG)] | 2.9 µM | – | – | 55 min | – | – |
| Guan-OO(sPEG^750-GAARSG)NRPVYIPRPRPPHPRL-OH (Guan-[Orn][Orn]NRPVYIPRPRPPHPRL-OH; not fully specified (residue 2)) [Api 300 (sPEG^750-GAARSG)] | 2.8 µM | – | – | 45 min | – | – |
| CC[C@H](C)[C@H](NC(=O)[C@H](Cc1ccc(O)cc1)NC(=O)[C@@H](NC(=O)[C@@H]1CCCN1C(=O)[C@H](CCCNC(=N)N)NC(=O)[C@H](CC(N)=O)NC(=O)[C@H](CC(N)=O)NC(=O)[C@H](CCCN)N=C(N(C)C)N(C)C)C(C)C)C(=O)N1CCC[C@H]1C(=O)N[C@@H](CCCNC(=N)N)C(=O)N1CCC[C@H]1C(=O)N[C@@H](CCCNC(=N)N)C(=O)N1CCC[C@H]1C(=O)N1CCC[C@H]1C(=O)N[C@@H](Cc1c[nH]cn1)C(=O)N1CCC[C@H]1C(=O)N[C@@H](CCCNC(=N)N)C(=O)N[C@@H](CC(C)C)C(N)=O [Api 88, Guan-ONNRPVYIPRPRPPHPRL-NH2, reference compound] ({Orn(α-tetramethylguanidino)}-NNRPVYIPRPRPPHPRL-NH2) | 0.44 µM (≈ 1.01 µg/mL) | – | 1.19 µM | – | – | – |
| Guan-ONO(sPEG^750-GARSG)RPVYIPRPRPPHPRL-OH ({Guan″}-[Orn]N[Orn]RPVYIPRPRPPHPRL-OH; not fully specified (residue 3)) [Api 301 (sPEG^750-GARSG)] | 2.9 µM | – | 0.27 µM | 45 min | – | – |
| H-GNNRPVYIPQPRPPHPRL-OH [Apidaecin 1b, reference compound] | 0.48 µM | – | 1.75 µM | – | – | – |
| tPEG^750-GAR-VDKPPYLPRPRPHypRHypTleYNO-NH2 (tPEG750-GARVDKPPYLPRPRP[Hyp]R[Hyp][Tle]YN[Orn]-NH2; not fully specified) [tPEG^750-GAR-Onc 110] | 48.4 µM | 64% | – | – | – | – |
| Guan-OO(tPEG^5000-GAARSG)NRPVYIPRPRPPHPRL-OH (Guan-[Orn][Orn]NRPVYIPRPRPPHPRL-OH; not fully specified (residue 2)) [Api 300 (tPEG^5000-GAARSG)] | 25.4 µM | 76% | – | – | – | – |
| Guan-OO(tPEG^5000-GRSG)NRPVYIPRPRPPHPRL-OH (Guan-[Orn][Orn]NRPVYIPRPRPPHPRL-OH; not fully specified (residue 2)) [Api 300 (tPEG^5000-GRSG)] | >44.8 µM | 75% | – | – | – | – |
| tPEG^5000-GAR-VDKPPYLPRPRPHypRHypTleYNO-NH2 (tPEG5000-GARVDKPPYLPRPRP[Hyp]R[Hyp][Tle]YN[Orn]-NH2) [tPEG^5000-GAR-Onc 110] | – | 96% | – | – | – | – |
| Guan-ONO(sPEG^750-GAARSG)RPVYIPRPRPPHPRL-OH ({Guan″}-[Orn]N[Orn]RPVYIPRPRPPHPRL-OH; not fully specified (residue 3)) [Api 301 (sPEG^750-GAARSG)] | 5.6 µM | – | – | 55 min | – | – |
| CC[C@H](C)[C@H](NC(=O)[C@H](CCCN)NC(=O)[C@H](CCCNC(=N)N)NC(=O)[C@@H]1CCCN1C(=O)[C@@H]1CCCN1C(=O)[C@H](CCCNC(=N)N)NC(=O)[C@@H]1CCCN1C(=O)[C@H](CCCNC(=N)N)NC(=O)[C@@H]1CCCN1C(=O)[C@H](CC(C)C)NC(=O)[C@H](Cc1ccc(O)cc1)NC(=O)[C@@H]1CCCN1C(=O)[C@@H]1CCCN1C(=O)[C@H](CCCCN)NC(=O)[C@H](CC(=O)O)NC(=O)[C@@H](N)C(C)C)C(=O)N[C@@H](Cc1ccc(O)cc1)C(=O)N[C@@H](CC(N)=O)C(=O)N[C@@H](CCCN)C(N)=O [Onc 72, VDKPPYLPRPRPPROIYNO-NH2] (H-VDKPPYLPRPRPPR[Orn]IYN[Orn]-NH2) | 1.7 µM (≈ 3.92 µg/mL) | – | 1.7 µM | – | – | – |
| Guan-ONO(tPEG^5000-GAARSG)RPVYIPRPRPPHPRL-OH ({Guan″}-[Orn]N[Orn]RPVYIPRPRPPHPRL-OH; not fully specified (residue 3)) [Api 301 (tPEG^5000-GAARSG)] | >47.5 µM | – | – | – | 78% | – |
| Guan-ONO(tPEG^5000-GRSG)RPVYIPRPRPPHPRL-OH ({Guan″}-[Orn]N[Orn]RPVYIPRPRPPHPRL-OH; not fully specified (residue 3)) [Api 301 (tPEG^5000-GRSG)] | >38 µM | 75% | – | – | – | – |
| Guan-OO(tPEG^750-GARSG)NRPVYIPRPRPPHPRL-OH (Guan-[Orn][Orn]NRPVYIPRPRPPHPRL-OH; not fully specified (residue 2)) [Api 300 (tPEG^750-GARSG)] | 1.5 µM | – | – | 45 min | – | – |
| Guan-ONO(tPEG^750-GARSG)RPVYIPRPRPPHPRL-OH ({Guan″}-[Orn]N[Orn]RPVYIPRPRPPHPRL-OH; not fully specified (residue 3)) [Api 301 (tPEG^750-GARSG)] | 1.5 µM | – | – | 45 min | – | – |
| Guan-OO(tPEG^5000-GARSG)NRPVYIPRPRPPHPRL-OH (Guan-[Orn][Orn]NRPVYIPRPRPPHPRL-OH; not fully specified (residue 2)) [Api 300 (tPEG^5000-GARSG)] | 17.4 µM | 69% | 0.44 µM | – | – | – |
| Guan-ONO(tPEG^750-GAARSG)RPVYIPRPRPPHPRL-OH ({Guan″}-[Orn]N[Orn]RPVYIPRPRPPHPRL-OH; not fully specified (residue 3)) [Api 301 (tPEG^750-GAARSG)] | 2.8 µM | – | – | 50 min | – | – |
| Guan-OO(sPEG^750-GRSG)NRPVYIPRPRPPHPRL-OH (Guan-[Orn][Orn]NRPVYIPRPRPPHPRL-OH; not fully specified (residue 2)) [Api 300 (sPEG^750-GRSG)] | 2.9 µM | – | 0.37 µM | 50 min | – | – |
| Guan-OO(sPEG^750-GARSG)NRPVYIPRPRPPHPRL-OH (Guan-[Orn][Orn]NRPVYIPRPRPPHPRL-OH; not fully specified (residue 2)) [Api 300 (sPEG^750-GARSG)] | 2.9 µM | – | 0.54 µM | 35 min | – | – |
| Guan-OO(tPEG^750-GRSG)NRPVYIPRPRPPHPRL-OH (Guan-[Orn][Orn]NRPVYIPRPRPPHPRL-OH; not fully specified (residue 2)) [Api 300 (tPEG^750-GRSG)] | 2.9 µM | – | – | 40 min | – | – |
| Guan-OO(tPEG^750-GAARSG)NRPVYIPRPRPPHPRL-OH (Guan-[Orn][Orn]NRPVYIPRPRPPHPRL-OH; not fully specified (residue 2)) [Api 300 (tPEG^750-GAARSG)] | 2.8 µM | – | – | 35 min | – | – |
| sPEG^750-GAR-VDKPPYLPRPRPHypRHypTleYNO-NH2 (sPEG750-GARVDKPPYLPRPRP[Hyp]R[Hyp][Tle]YN[Orn]-NH2) [sPEG^750-GAR-Onc 110] | 24.3 µM | 73% | 9.2 µM | – | – | – |
| Guan-ONO(tPEG^5000-GARSG)RPVYIPRPRPPHPRL-OH | – | – | – | – | – | R-S |
